Measurements from patent US6437184B1, “Oxime compounds, their use, and intermediates for their production” (Sumitomo Chemical Company, Limited, priority 1997, dated 2002).

Tested on: Cydia pomonella
Assay: Insecticidal test against Cydia pomonella
Type: in vivo
Conditions: 168 h, 100 ppm water dilution, 0.2 ml on surface of artificial diet, eggs just before hatching, after 7 days
Procedure: A water dilution (100 ppm) of a test compound formulation obtained according to Formulation Example 1 was added dropwise at a volume of 0.2 ml and spread over the surface of an artificial diet having a weight of 3 g, which had been prepared in a 30 ml polyethylene cup. After air drying, placed in the cup was a piece of wax paper (about 2.5 cm square) having about 20 eggs which had been laid by Cydia pomonella and were just before hatching. Four pieces of such wax paper were used for each treatment. After 7 days, the mortality of the larvae was determined.

| SMILES | mortality at 100 µg/mL |
| --- | --- |
| CCc1cc(OCC=C(Cl)Cl)cc(CC)c1OCCCCOCC=NOCC=C(Cl)Cl [(10), 4-(2,6-diethyl-4-(3,3-dichloro-2-propenyloxy)phenoxy)butyloxyacetaldehyde O-(3,3-dichloro-2-propenyl)oxime] | ≥ 80% |
| ClC(Cl)=CCOc1cc(Cl)c(OCCCC=NOCC=C(Br)Br)c(Cl)c1 [(25), 4-(2,6-dichloro-4-(3,3-dichloro-2-propenyloxy)phenoxy)butanal O-(3,3-dibromo-2-propenyl)oxime] | ≥ 80% |
| ClC(Cl)=CCOc1cc(Cl)c(OCCCC=NOCc2ccccc2)c(Cl)c1 [(27), 4-(2,6-dichloro-4-(3,3-dichloro-2-propenyloxy)phenoxy)butanal O-benzyloxime] | ≥ 80% |
| CC(=NOC(C)(C)C)c1ccc(OCCCOc2c(Cl)cc(OCC=C(Cl)Cl)cc2Cl)cc1 [(294), 4′-(3-(2,6-dichloro-4-(3,3-dichloro-2-propenyloxy)phenoxy)propyloxy)acetophenone O-tert-butyloxime] | ≥ 80% |
| CCON=C(C)c1ccc(OCCCCOc2c(Cl)cc(OCC=C(Cl)Cl)cc2Cl)cc1 [(297), 4′-(4-(2,6-dichloro-4-(3,3-dichloro-2-propenyloxy)phenoxy)butyloxy)acetophenone O-ethyloxime] | ≥ 80% |
| CC(=NOCC=C(Br)Br)c1ccc(OCCCCOc2c(Cl)cc(OCC=C(Cl)Cl)cc2Cl)cc1 [(300), 4′-(4-(2,6-dichloro-4-(3,3-dichloro-2-propenyloxy)phenoxy)butyloxy)acetophenone O-(3,3-dibromo-2-propenyl)oxime] | ≥ 80% |
| ClC(Cl)=CCON=Cc1cccc(COc2c(Cl)cc(OCC=C(Cl)Cl)cc2Cl)c1 [(323), 3-(2,6-dichloro-4-(3,3-dichloro-2-propenyloxy)phenoxymethyl)benzaldehyde O-(3,3-dichloro-2-propenyl)oxime] | ≥ 80% |
| ClC(Cl)=CCOc1cc(Cl)c(OCc2cccc(C=NOCc3ccccc3)c2)c(Cl)c1 [(324), 3-(2,6-dichloro-4-(3,3-dichloro-2-propenyloxy)phenoxymethyl)benzaldehyde O-benzyloxime] | ≥ 80% |
| CON=Cc1ccc(CCCOc2c(Cl)cc(OCC=C(Cl)Cl)cc2Cl)cc1 [(365), 4-(3-(2,6-dichloro-4-(3,3-dichloro-2-propenyloxy)phenoxy)propyl)benzaldehyde O-methyloxime] | ≥ 80% |
| CCCON=Cc1cccc(COc2c(Cl)cc(OCC=C(Cl)Cl)cc2Cl)c1 [(379), 3-((2,6-dichloro-4-(3,3-dichloro-2-propenyloxy)phenoxy)methyl)benzaldehyde O-propyloxime] | ≥ 80% |
| CC(C)CON=Cc1cccc(COc2c(Cl)cc(OCC=C(Cl)Cl)cc2Cl)c1 [(381), 3-((2,6-dichloro-4-(3,3-dichloro-2-propenyloxy)phenoxy)methyl)benzaldehyde O-iso-butyloxime] | ≥ 80% |
| CC(C)CON=Cc1ccc(CCCOc2c(Cl)cc(OCC=C(Cl)Cl)cc2Cl)cc1 [(382), 4-(3-(2,6-dichloro-4-(3,3-dichloro-2-propenyloxy)phenoxy)propyl)benzaldehyde O-iso-butyloxime] | ≥ 80% |
| CC(=NOCCOc1c(Cl)cc(OCC=C(Cl)Cl)cc1Cl)c1ccc(C(F)(F)F)cc1 [(549), 4′-(trifluoromethyl)acetophenone O-(2-(2,6-dichloro-4-(3,3-dichloro-2-propenyloxy)phenoxy)ethyl)oxime] | ≥ 80% |

Tested on: Musca domestica
Assay: Insecticidal test against Musca domestica
Type: in vivo
Conditions: 24 h, 500 ppm water dilution, 0.7 ml on filter paper with sucrose, female adults, after 1 day, read-out: mortality
Procedure: In the bottom of a polyethylene cup having a diameter of 5.5 cm was placed a piece of filter paper having the same size. A 200-fold water dilution (500 ppm) of a test compound formulation obtained according to Formulation Example 1 was added dropwise at a volume of 0.7 ml on the filter paper, and about 30 mg of sucrose as a diet was uniformly placed thereon. Ten female adults of houseflies (Musca domestica) were set free in the cup, and the cup was kept covered. After 1 day, the survival of the adults was determined to determine the mortality.

| SMILES | mortality at 500 µg/mL |
| --- | --- |
| CCON=CCOCCCCOc1c(Cl)cc(OCC=C(Cl)Cl)cc1Cl [(1), 4-(2,6-dichloro-4-(3,3-dichloro-2-propenyloxy)phenoxy)butyloxyacetaldehyde O-ethyloxime] | ≥ 80% |
| C=CCON=CCOCCCCOc1c(Cl)cc(OCC=C(Cl)Cl)cc1Cl [(4), 4-(2,6-dichloro-4-(3,3-dichloro-2-propenyloxy)phenoxy)butyloxyacetaldehyde O-(2-propenyl)oxime] | ≥ 80% |
| CON=CCOCCCCOc1c(Cl)cc(OCC=C(Cl)Cl)cc1Cl [(7), 4-(2,6-dichloro-4-(3,3-dichloro-2-propenyloxy)phenoxy)butyloxyacetaldehyde O-methyloxime] | ≥ 80% |
| CCCON=CCCCCOc1c(Cl)cc(OCC=C(Cl)Cl)cc1Cl [(18), 5-(2,6-dichloro-4-(3,3-dichloro-2-propenyloxy)phenoxy)pentanal O-n-propyloxime] | ≥ 80% |
| C=CCON=CCCCCOc1c(Cl)cc(OCC=C(Cl)Cl)cc1Cl [(19), 5-(2,6-dichloro-4-(3,3-dichloro-2-propenyloxy)phenoxy)pentanal O-(2-propenyl)oxime] | ≥ 80% |
| COc1ccc(CON=CCCCCOc2c(Cl)cc(OCC=C(Cl)Cl)cc2Cl)cc1 [(22), 5-(2,6-dichloro-4-(3,3-dichloro-2-propenyloxy)phenoxy)pentanal O-(4-methoxybenzyl)oxime] | ≥ 80% |
| CCON=CCCCOc1c(Cl)cc(OCC=C(Cl)Cl)cc1Cl [(28), 4-(2,6-dichloro-4-(3,3-dichloro-2-propenyloxy)phenoxy)butanal O-ethyloxime] | ≥ 80% |
| CON=CCCCOc1c(Cl)cc(OCC=C(Cl)Cl)cc1Cl [(29), 4-(2,6-dichloro-4-(3,3-dichloro-2-propenyloxy)phenoxy)butanal O-methyloxime] | ≥ 80% |
| CC(C)ON=CCOCCCCCOc1c(Cl)cc(OCC=C(Cl)Cl)cc1Cl [(153), 5-(2,6-dichloro-4-(3,3-dichloro-2-propenyloxy)phenoxy)pentyloxyacetaldehyde O-isopropyloxime] | ≥ 80% |
| CC(C)CON=CCOCCCCCOc1c(Cl)cc(OCC=C(Cl)Cl)cc1Cl [(155), 5-(2,6-dichloro-4-(3,3-dichloro-2-propenyloxy)phenoxy)pentyloxyacetaldehyde O-isobutyloxime] | ≥ 80% |
| CON=CCOCCCCCOc1c(Cl)cc(OCC=C(Cl)Cl)cc1Cl [(158), 5-(2,6-dichloro-4-(3,3-dichloro-2-propenyloxy)phenoxy)pentyloxyacetaldehyde O-methyloxime] | ≥ 80% |
| CCON=CCOCCCCCOc1c(Cl)cc(OCC=C(Cl)Cl)cc1Cl [(159), 5-(2,6-dichloro-4-(3,3-dichloro-2-propenyloxy)phenoxy)pentyloxyacetaldehyde O-ethyloxime] | ≥ 80% |
| ClC(Cl)=CCOc1cc(Cl)c(OCCCCC=NOCC(Cl)(Cl)Cl)c(Cl)c1 [(170), 5-(2,6-dichloro-4-(3,3-dichloro-2-propenyloxy)phenoxy)pentanal O-(2,2,2-trichloroethyl)oxime] | ≥ 80% |
| CC(COCCCCCOc1c(Cl)cc(OCC=C(Cl)Cl)cc1Cl)=NOCc1ccccc1 [(175), 5-(2,6-dichloro-4-(3,3-dichloro-2-propenyloxy)phenoxy)pentyloxyacetone O-benzyloxime] | ≥ 80% |
| CCON=C(C)COCCCCCOc1c(Cl)cc(OCC=C(Cl)Cl)cc1Cl [(176), 5-(2,6-dichloro-4-(3,3-dichloro-2-propenyloxy)phenoxy)pentyloxyacetone O-ethyloxime] | ≥ 80% |
| CCON=Cc1ccc(OCCOc2c(Cl)cc(OCC=C(Cl)Cl)cc2Cl)cc1 [(287), 4-(2-(2,6-dichloro-4-(3,3-dichloro-2-propenyloxy)phenoxy)-ethoxy)benzaldehyde O-ethyloxime] | ≥ 80% |
| CON=Cc1ccc(OCCCOc2c(Cl)cc(OCC=C(Cl)Cl)cc2Cl)cc1 [(305), 4-(3-(2,6-dichloro-4-(3,3-dichloro-2-propenyloxy)phenoxy)propyloxy)benzaldehyde O-methyloxime] | ≥ 80% |
| C=CCON=Cc1cccc(COc2c(Cl)cc(OCC=C(Cl)Cl)cc2Cl)c1 [(330), 3-(2,6-dichloro-4-(3,3-dichloro-2-propenyloxy)phenoxymethyl)benzaldehyde O-allyl oxime] | ≥ 80% |
| CCCCON=Cc1ccc(COc2c(Cl)cc(OCC=C(Cl)Cl)cc2Cl)cc1 [(376), 4-((2,6-dichloro-4-(3,3-dichloro-2-propenyloxy)phenoxy)methyl)benzaldehyde O-butyloxime] | ≥ 80% |
| CC=NOCCCCCOc1c(Cl)cc(OCC=C(Cl)Cl)cc1Cl [(541), acetaldehyde O-(5-(2,6-dichloro-4-(3,3-dichloro-2-propenyloxy)phenoxy)pentyl)oxime] | ≥ 80% |
| CCCCCC=NOCCCCCCOc1c(Cl)cc(OCC=C(Cl)Cl)cc1Cl [(551), hexanal O-(6-(2,6-dichloro-4-(3,3-dichloro-2-propenyloxy)phenoxy)hexyl)oxime] | ≥ 80% |
| CC(C)=NOCCCCCOc1c(Cl)cc(OCC=C(Cl)Cl)cc1Cl [(560), acetone O-(5-(2,6-dichloro-4-(3,3-dichloro-2-propenyloxy)phenoxy)pentyl)oxime] | ≥ 80% |
| CCCCOCC=NOCCCCCOc1c(Cl)cc(OCC=C(Cl)Cl)cc1Cl [(565), n-butyloxyacetaldehyde O-(5-(2,6-dichloro-4-(3,3-dichloro-2-propenyloxy)phenoxy)pentyl)oxime] | ≥ 80% |
| ClC(Cl)=CCOc1cc(Cl)c(OCCCCCON=C2CCCCC2)c(Cl)c1 [(566), cyclohexanone O-(5-(2,6-dichloro-4-(3,3-dichloro-2-propenyloxy)phenoxy)pentyl)oxime] | ≥ 80% |
| CC(=NOCCCCOc1c(Cl)cc(OCC=C(Cl)Cl)cc1Cl)c1ccccn1 [(689), methyl 2-pyridyl ketone O-(4-(2,6-dichloro-4-(3,3-dichloro-2-propenyloxy)phenoxy)butyl)oxime] | ≥ 80% |
